Reference: ChEMBL document CHEMBL3045838, “Synthesis, antimicrobial and antioxidant activities of 2-[1-{3,5-diaryl-4,5-dihydro-1H-pyrazolenyl}]-4-(4-nitrophenyl)-[1,3]-thiazoles” (2013)
Converted amounts (≈) assume the structure as drawn.

Columns and labels:
Type in all cases: functional
Pseudomonas aeruginosa [1] = assay: Antibacterial activity against Pseudomonas aeruginosa ATCC 27853 assessed as growth inhibition at 1.56 to 25 ug/mL
Klebsiella pneumoniae [2] = assay: Antibacterial activity against Klebsiella pneumoniae assessed as growth inhibition by serial plate dilution method
Staphylococcus aureus [3] = assay: Antibacterial activity against Staphylococcus aureus ATCC 25923 assessed as growth inhibition at 1.56 to 25 ug/mL
Aspergillus fumigatus [4] = assay: Antifungal activity against Aspergillus fumigatus NCIM 902 assessed as growth inhibition at 1.56 to 25 ug/mL
[5] = test system: Trichophyton mentagrophytes; assay: Antifungal activity against Trichophyton mentagrophytes assessed as growth inhibition at 1.56 to 25 ug/mL
Escherichia coli [6] = assay: microbe, parasite or virus in culture; conditions: ATCC 25922
Description: Antibacterial activity against Escherichia coli ATCC 25922 assessed as growth inhibition by serial plate dilution method

Pseudomonas aeruginosa [7] = assay: Antibacterial activity against Pseudomonas aeruginosa ATCC 27853 assessed as growth inhibition by serial plate dilution method
[8] = test system: Trichophyton mentagrophytes; assay: Antifungal activity against Trichophyton mentagrophytes assessed as growth inhibition by serial plate dilution method
Staphylococcus aureus [9] = assay: Antibacterial activity against Staphylococcus aureus ATCC 25923 assessed as growth inhibition by serial plate dilution method
Talaromyces marneffei [10] = assay: Antifungal activity against Talaromyces marneffei assessed as growth inhibition by serial plate dilution method
Talaromyces marneffei [11] = assay: Antifungal activity against Talaromyces marneffei assessed as growth inhibition at 1.56 to 25 ug/mL
Aspergillus fumigatus [12] = assay: Antifungal activity against Aspergillus fumigatus NCIM 902 assessed as growth inhibition by serial plate dilution method
Klebsiella pneumoniae [13] = assay: Antibacterial activity against Klebsiella pneumoniae assessed as growth inhibition at 1.56 to 25 ug/mL
Aspergillus flavus [14] = assay: Antifungal activity against Aspergillus flavus NCIM 524 assessed as growth inhibition at 1.56 to 25 ug/mL
Aspergillus flavus [15] = assay: Antifungal activity against Aspergillus flavus NCIM 524 assessed as growth inhibition by serial plate dilution method
[16] = test system: Radical scavenging activity; assay: Antioxidant activity assessed as inhibition of DPPH radical generation at 4000 ug/mL after 15 min by UV-Vis spectrophotometric analysis relative to control; conditions: at 4000 µg/mL
Escherichia coli [17] = assay: Antibacterial activity against Escherichia coli ATCC 25922 assessed as growth inhibition at 1.56 to 25 ug/mL

SMILES | MIC (Klebsiella pneumoniae [2]) [µg/mL] | MIC (Escherichia coli [6]) [µg/mL] | MIC (Pseudomonas aeruginosa [7]) [µg/mL] | MIC [8] [µg/mL] | MIC (Staphylococcus aureus [9]) [µg/mL] | MIC (Talaromyces marneffei [10]) [µg/mL] | MIC (Aspergillus fumigatus [12]) [µg/mL] | MIC (Aspergillus flavus [15]) [µg/mL] | diameter of the inhibition zone (DIZ) (Pseudomonas aeruginosa [1]) [mm] | diameter of the inhibition zone (DIZ) (Staphylococcus aureus [3]) [mm] | diameter of the inhibition zone (DIZ) (Aspergillus fumigatus [4]) [mm] | diameter of the inhibition zone (DIZ) [5] [mm] | diameter of the inhibition zone (DIZ) (Talaromyces marneffei [11]) [mm] | diameter of the inhibition zone (DIZ) (Klebsiella pneumoniae [13]) [mm] | diameter of the inhibition zone (DIZ) (Aspergillus flavus [14]) [mm] | inhibition [16] [%] | diameter of the inhibition zone (DIZ) (Escherichia coli [17]) [mm]
COc1ccc(-c2ccc(C3CC(c4ccc(OC)c(OC)c4)=NN3c3nc(-c4ccc([N+](=O)[O-])cc4)cs3)o2)c([N+](=O)[O-])c1 (centres undefined) | 12.5 (≈ 19.9 µM) | 12.5 (≈ 19.9 µM) | 12.5 (≈ 19.9 µM) | 12.5 (≈ 19.9 µM) | 12.5 (≈ 19.9 µM) | 12.5 (≈ 19.9 µM) | 12.5 (≈ 19.9 µM) | 12.5 (≈ 19.9 µM) | 11 | 11 | 11 | 11 | 11 | 11 | 11 | 86 | 11
COc1ccc(C2=NN(c3nc(-c4ccc([N+](=O)[O-])cc4)cs3)C(c3ccc(-c4ccc([N+](=O)[O-])cc4)o3)C2)cc1OC (centres undefined) | 6.25 (≈ 10.5 µM) | 6.25 (≈ 10.5 µM) | 6.25 (≈ 10.5 µM) | 6.25 (≈ 10.5 µM) | 6.25 (≈ 10.5 µM) | 6.25 (≈ 10.5 µM) | 6.25 (≈ 10.5 µM) | 6.25 (≈ 10.5 µM) | 16 | 16 | 16 | 16 | 16 | 16 | 16 | 62 | 16
COc1ccc(C2=NN(c3nc(-c4ccc([N+](=O)[O-])cc4)cs3)C(c3ccc(-c4ccc(Br)cc4)o3)C2)cc1OC (centres undefined) | 12.5 (≈ 19.8 µM) | 12.5 (≈ 19.8 µM) | 12.5 (≈ 19.8 µM) | 12.5 (≈ 19.8 µM) | 12.5 (≈ 19.8 µM) | 12.5 (≈ 19.8 µM) | 12.5 (≈ 19.8 µM) | 12.5 (≈ 19.8 µM) | 11 | 11 | 11 | 11 | 11 | 11 | 11 | 69 | 11
COc1ccc(C2=NN(c3nc(-c4ccc([N+](=O)[O-])cc4)cs3)C(c3ccc(SC)cc3)C2)cc1OC (centres undefined) | 25 (≈ 46.9 µM) | 25 (≈ 46.9 µM) | 25 (≈ 46.9 µM) | 25 (≈ 46.9 µM) | 25 (≈ 46.9 µM) | 25 (≈ 46.9 µM) | 25 (≈ 46.9 µM) | 25 (≈ 46.9 µM) | < 10 | < 10 | < 10 | < 10 | < 10 | < 10 | < 10 | 86 | < 10
COc1ccc(C2=NN(c3nc(-c4ccc([N+](=O)[O-])cc4)cs3)C(c3ccc(-c4ccc([N+](=O)[O-])cc4C)o3)C2)cc1OC (centres undefined) | 6.25 (≈ 10.2 µM) | 6.25 (≈ 10.2 µM) | 6.25 (≈ 10.2 µM) | 6.25 (≈ 10.2 µM) | 6.25 (≈ 10.2 µM) | 6.25 (≈ 10.2 µM) | 6.25 (≈ 10.2 µM) | 6.25 (≈ 10.2 µM) | 16 | 16 | 16 | 16 | 16 | 16 | 16 | 14 | 16
O=[N+]([O-])c1ccc(-c2csc(N3N=C(c4ccccc4)CC3c3ccc(-c4ccc(Cl)cc4)o3)n2)cc1 (centres undefined) | 12.5 (≈ 23.7 µM) | 12.5 (≈ 23.7 µM) | 12.5 (≈ 23.7 µM) | 12.5 (≈ 23.7 µM) | 12.5 (≈ 23.7 µM) | 12.5 (≈ 23.7 µM) | 12.5 (≈ 23.7 µM) | 12.5 (≈ 23.7 µM) | 11 | 11 | 11 | 11 | 11 | 11 | 11 | 45 | 11
COc1ccc(C2=NN(c3nc(-c4ccc([N+](=O)[O-])cc4)cs3)C(c3ccc(SC)cc3)C2)cc1 (centres undefined) | 25 (≈ 49.7 µM) | 25 (≈ 49.7 µM) | 25 (≈ 49.7 µM) | 25 (≈ 49.7 µM) | 25 (≈ 49.7 µM) | 25 (≈ 49.7 µM) | 25 (≈ 49.7 µM) | 25 (≈ 49.7 µM) | < 10 | < 10 | < 10 | < 10 | < 10 | < 10 | < 10 | 79 | < 10

Continued, in another order:

MIC (Klebsiella pneumoniae [2]) [µg/mL] | MIC (Escherichia coli [6]) [µg/mL] | MIC (Pseudomonas aeruginosa [7]) [µg/mL] | MIC [8] [µg/mL] | MIC (Staphylococcus aureus [9]) [µg/mL] | MIC (Talaromyces marneffei [10]) [µg/mL] | MIC (Aspergillus fumigatus [12]) [µg/mL] | MIC (Aspergillus flavus [15]) [µg/mL] | SMILES | diameter of the inhibition zone (DIZ) (Pseudomonas aeruginosa [1]) [mm] | diameter of the inhibition zone (DIZ) (Staphylococcus aureus [3]) [mm] | diameter of the inhibition zone (DIZ) (Aspergillus fumigatus [4]) [mm] | diameter of the inhibition zone (DIZ) [5] [mm] | diameter of the inhibition zone (DIZ) (Talaromyces marneffei [11]) [mm] | diameter of the inhibition zone (DIZ) (Klebsiella pneumoniae [13]) [mm] | diameter of the inhibition zone (DIZ) (Aspergillus flavus [14]) [mm] | inhibition [16] [%] | diameter of the inhibition zone (DIZ) (Escherichia coli [17]) [mm]
6.25 (≈ 10.1 µM) | 6.25 (≈ 10.1 µM) | 6.25 (≈ 10.1 µM) | 6.25 (≈ 10.1 µM) | 6.25 (≈ 10.1 µM) | 6.25 (≈ 10.1 µM) | 6.25 (≈ 10.1 µM) | 6.25 (≈ 10.1 µM) | COc1ccc(C2=NN(c3nc(-c4ccc([N+](=O)[O-])cc4)cs3)C(c3ccc(-c4ccc(Cl)cc4Cl)o3)C2)cc1OC (centres undefined) | 16 | 16 | 16 | 16 | 16 | 16 | 16 | 86 | 16
6.25 (≈ 9.53 µM) | 6.25 (≈ 9.53 µM) | 6.25 (≈ 9.53 µM) | 6.25 (≈ 9.53 µM) | 6.25 (≈ 9.53 µM) | 6.25 (≈ 9.53 µM) | 6.25 (≈ 9.53 µM) | 6.25 (≈ 9.53 µM) | COc1ccc(C2=NN(c3nc(-c4ccc([N+](=O)[O-])cc4)cs3)C(c3ccc(-c4cc(Cl)c(Cl)cc4Cl)o3)C2)cc1OC (centres undefined) | 16 | 16 | 16 | 16 | 16 | 16 | 16 | 57 | 16
6.25 (≈ 10.6 µM) | 6.25 (≈ 10.6 µM) | 6.25 (≈ 10.6 µM) | 6.25 (≈ 10.6 µM) | 6.25 (≈ 10.6 µM) | 6.25 (≈ 10.6 µM) | 6.25 (≈ 10.6 µM) | 6.25 (≈ 10.6 µM) | COc1ccc(C2=NN(c3nc(-c4ccc([N+](=O)[O-])cc4)cs3)C(c3ccc(-c4ccc(Cl)cc4)o3)C2)cc1OC (centres undefined) | 16 | 16 | 16 | 16 | 16 | 16 | 16 | 35 | 16
12.5 (≈ 19.8 µM) | 12.5 (≈ 19.8 µM) | 12.5 (≈ 19.8 µM) | 12.5 (≈ 19.8 µM) | 12.5 (≈ 19.8 µM) | 12.5 (≈ 19.8 µM) | 12.5 (≈ 19.8 µM) | 12.5 (≈ 19.8 µM) | COc1ccc(C2=NN(c3nc(-c4ccc([N+](=O)[O-])cc4)cs3)C(c3ccc(-c4ccc(Cl)cc4[N+](=O)[O-])o3)C2)cc1OC (centres undefined) | 11 | 11 | 11 | 11 | 11 | 11 | 11 | 82 | 11
6.25 (≈ 10.3 µM) | 6.25 (≈ 10.3 µM) | 6.25 (≈ 10.3 µM) | 6.25 (≈ 10.3 µM) | 6.25 (≈ 10.3 µM) | 6.25 (≈ 10.3 µM) | 6.25 (≈ 10.3 µM) | 6.25 (≈ 10.3 µM) | COc1ccc(C2=NN(c3nc(-c4ccc([N+](=O)[O-])cc4)cs3)C(c3ccc(-c4ccc(F)c(Cl)c4)o3)C2)cc1OC (centres undefined) | 16 | 16 | 16 | 16 | 16 | 16 | 16 | 74 | 16
